From article PMC7321108, “1-Hydroxyanthraquinones Containing Aryl Substituents as Potent and Selective Anticancer Agents” (Molecules, 2020)

With O=C1c2ccccc2C(=O)c2c(O)c(-c3ccc(Cl)cc3C(F)(F)F)cc(-c3ccc(Cl)cc3C(F)(F)F)c21 [Compound 39, 2,4-Di-(4-Chloro-2-(trifluoromethyl)phenyl)-1-hydroxyanthracene-9,10-dione] as the compound, how does the melting point read?
The melting point was 150 to 152 °C.

With COc1cc(-c2ccc3c(c2O)C(=O)c2ccccc2C3=O)cc(OC)c1OC [Compound 24, 1-Hydroxy-2-(3,4,5-trimethoxyphenyl)anthracene-9,10-dione] as the compound, how does the melting point read?
Its melting point is 190.1 °C (dec.).

For O=C1c2ccccc2C(=O)c2c(-c3ccc(Cl)cc3C(F)(F)F)ccc(O)c21 [Compound 19, 1-(4-Chloro-2-(trifluoromethyl)phenyl)-4-hydroxyanthracene-9,10-dione], which melting point is on record?
The melting point was 186 °C (dec.).

With O=C1c2ccccc2C(=O)c2c(-c3cc(C(F)(F)F)ccc3Cl)ccc(O)c21 [Compound 18, 1-(2-Chloro-5-(trifluoromethyl)phenyl)-4-hydroxyanthracene-9,10-dione] as the compound, how does the melting point read?
Its melting point is 184.3 °C (dec.).

With COc1cc(-c2cc(-c3cc(OC)c(OC)c(OC)c3)c3c(c2O)C(=O)c2ccccc2C3=O)cc(OC)c1OC [Compound 32, 1-Hydroxy-2,4-di-(3,4,5-trimethoxyphenyl)anthracene-9,10-dione] as the compound, how does the melting point read?
The melting point was 214.9 °C (dec.).
